Like-named read-outs stand apart in the source and are kept apart here.
Columns and labels:
rat CYP24A1 [1] = target: T1, rat CYP24A1 (Rattus norvegicus, UniProt Q09128); assay: Kinetics of metabolism of analogs in phospholipid vesicles by rat CYP24A1; type: in vitro ADME; details: for Km: rat CYP24A1 0.14 µM, phospholipid vesicles, 1 min incubation, ± SE from curve fit
T1 construct: made in house; host or cells: E. coli
T1 sequence (Q09128 36-514): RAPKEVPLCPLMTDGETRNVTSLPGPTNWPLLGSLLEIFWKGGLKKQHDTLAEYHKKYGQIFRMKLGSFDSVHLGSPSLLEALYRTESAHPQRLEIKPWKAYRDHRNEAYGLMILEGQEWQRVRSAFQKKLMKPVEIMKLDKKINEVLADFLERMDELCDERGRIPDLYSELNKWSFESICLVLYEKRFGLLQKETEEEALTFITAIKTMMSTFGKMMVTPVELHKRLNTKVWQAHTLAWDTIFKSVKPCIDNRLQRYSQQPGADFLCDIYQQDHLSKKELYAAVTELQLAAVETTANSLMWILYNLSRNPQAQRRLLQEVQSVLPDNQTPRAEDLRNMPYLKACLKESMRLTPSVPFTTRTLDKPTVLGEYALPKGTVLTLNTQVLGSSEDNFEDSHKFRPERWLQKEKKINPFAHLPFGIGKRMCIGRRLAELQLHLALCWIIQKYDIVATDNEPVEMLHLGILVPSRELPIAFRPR
Method: An incubation time of 1 min was chosen to obtain the initial rate based on the time courses (Fig. 6) and previous studies[28],[29].
To test metabolism of each analog, they were incorporated into phospholipid vesicles made from dioleoyl phosphatidylcholine and cardiolipin by sonication, as before[24],[28]. […] Samples from incubations with CYP24A1 were extracted with dichloromethane and analysed by HPLC using a 25 cm Grace Alltima C18 column, as before[27],[28]. […] For the more polar 33, the acetonitrile gradient was 30% to 100% acetonitrile for 30 min then 100% acetonitrile for 20 min, at 0.5 mL/min.

rat CYP24A1 [2] = target: T1, rat CYP24A1; assay: Time courses and product profiles for metabolism of analogs by rat CYP24A1; type: in vitro ADME
Excerpt: These were identified from authentic standards as 20S,25(OH)2D3, and the two C24 diastereomers of 20S,24(OH)2D3[23],[27]. One of the C24 diastereomers, 20S,24 R(OH)2D3 is the major product and accounts for almost 70% of the total products. […] There were two major products formed from this analog, RT27 and RT30 (indicated by arrows), which accounted for approximately 20% and 30% of the total products, respectively. Compound 23 (Fig. S1E) was converted to at least 6 different products by the incubation with CYP24A1. In contrast, 13 tested under identical conditions generated only one major product with a retention time of 20 min (RT20) and three minor products (Fig. S1D). By 10 min of incubation, almost all of 13 had been metabolized by CYP24A1.
The activity of CYP24A1 with the different analogs was determined as a function of time to determine the initial linear region that could be used for kinetic studies, and to determine any differences in the pattern between analogs. […] The major product of 13 (Fig. S1C, RT20), accounted for 71% of the total secosteroids (products and substrate) at one min and by 20 min it was 95% of all secosteroids. The time course for 20S(OH)D3 in comparison to 4 and 33, reached maximum product formation early in the incubation, with the amount of product at the end of the incubation being only 2.2-fold higher than at one min. By 20 min, less than 15% of the 20S(OH)D3 had been metabolized. […] While initially being metabolized at the lowest rate of any of the analogs, 33 maintained its initial rate longer with more product being present at the end of the 20 min incubation than for any of the other analogs except 13 (Fig. 6).
Figure 6 Time courses for metabolism of 20S(OH)D3 analogs in phospholipid vesicles by rat CYP24A1. 20S(OH)D3, 4, 13, 23 and 33 were incorporated into phospholipid vesicles at a ratio of 0.018 mol/mol phospholipid and incubated with 0.14 µM rat CYP24A1 at 37 °C. Products were analyzed by HPLC.
Rat CYP24A1, mouse CYP27B1 and adrenodoxin and human adrenodoxin reductase were expressed in E. coli and purified as described before[28],[30],[35]. […] Samples from incubations with CYP24A1 were extracted with dichloromethane and analysed by HPLC using a 25 cm Grace Alltima C18 column, as before[27],[28]. […] Products from incubations with CYP27B1 were similarly extracted with dichloromethane and analyzed by reverse phase HPLC using a 15 cm Grace Smart C18 column and an acetonitrile in water gradient (10 min 45% to 100% acetonitrile then 20 min at 100% acetonitrile, at 0.5 mL/min).
Supplementary Fig. S1. […] Samples were analyzed by reverse-phase HPLC using an acetonitrile in water gradient as described in the Methods. […]

[3] = design: method as in earlier work; details: mice, doses as high as 60 µg/kg; cited from earlier work
[4] = tested on: collagen-induced arthritis; design: method as in earlier work; details: mouse model, dose as low as 2 µg/kg; cited from earlier work
[5] = rats; cited from earlier work

| SMILES | Km, fold lower than that for 20S(OH)D3 (rat CYP24A1 [1]; rat CYP24A1) | kcat/Km, higher than for the next best analog, 4 (rat CYP24A1 [1]; rat CYP24A1) [%] | Km (rat CYP24A1 [1]) [mmol/mol PL] | substrate metabolized by CYP24A1 (rat CYP24A1 [2]; by 10 min of incubation) | metabolism by CYP24A1 relative to 20S(OH)D3 (rat CYP24A1 [2]; by 20 min, fold greater than 20S(OH)D3) [fold] | hypercalcemia [3] | Km, fold higher than for 4 (rat CYP24A1 [1]; rat CYP24A1) | catalytic efficiency, fold lower than for 13 (rat CYP24A1 [1]; rat CYP24A1) [fold] | effect on collagen-induced arthritis [4] | hypercalcemia [5] | amount of product at end of incubation relative to one min (rat CYP24A1 [2]; 20 min incubation versus one min) [fold] | substrate metabolized by CYP24A1 (rat CYP24A1 [2]; by 20 min) |
| --- | --- | --- | --- | --- | --- | --- | --- | --- | --- | --- | --- | --- |
| C=C1CC[C@H](O)C/C1=C/C=C1\CCC[C@@]2(C)[C@H]1CC[C@@H]2[C@@](C)(O)CCOC(C)C [compound 13] | 3–4 fold | 72 | 7.9 ± 1.5 | almost all | 6 |  |  |  |  |  |  |  |
| C=C1CC[C@H](O)C/C1=C/C=C1\CCC[C@@]2(C)[C@H]1CC[C@@H]2[C@@](C)(O)CCCC(C)C [20S(OH)D3, 20S-hydroxyvitamin D3] |  |  | 34.8 ± 9.4 |  |  | does not cause hypercalcemia | over 17 fold | 13 | suppressive effects | does not cause hypercalcemia | 2.2 | less than 15% |
